Key:
[1] = in vitro BCS study; low solubility, low permeability; cited from earlier work
[2] = test system: Clostridium difficile infection; test: Phase IIIb/IV randomized open-label EXTEND study (2819-MA-1002): extended fidaxomicin vs standard vancomycin; format: in vivo, human
Procedure: Fidaxomicin (FDX) is believed to reduce recurrence primarily through minimal collateral damage to colonic microflora. […] Subjects will receive 200 mg twice daily (b.i.d.) for 5 days from Day 1 to Day 5. From Day 6 to Day 25, subjects will receive 200 mg once daily on alternate days (first alternate day dose given on Day 7). This extension of the dose will allow a longer period for the protective microflora to recover and extend the period of time over which Clostridium difficile cells are suppressed, and kill any dormant spores that germinate. The extension of the dose also targets the early recurrence period documented in the phase 3 studies—the first 15 days after the end of therapy during which the majority of recurrences occurred. By covering this period this revised dosing regimen may reduce the recurrence to <10%, preferably to <5% and even more preferred to <3%. The impact on the gut microflora was limited supporting the rationale for this study.
The dosing of vancomycin (Vancocin™) to be administered in this study is in line with the SmPC for Vancocin. Subjects will receive 125 mg four times daily (q.i.d.) for 10 days from Day 1 to Day 10.
The dosage regimen was as described in Table 1 of Example 1.

[3] = test system: CDI; test: Individual patient data for extended fidaxomicin treatment regimen; format: in vivo, human
From the text: Individual Patient Data for Extended Fidaxomicin Treatment Regimen

[4] = Day 55, extended fidaxomicin or standard vancomycin
[5] = Table 7, extended fidaxomicin regimen of Example 1 or standard vancomycin
[6] = extended fidaxomicin Day 55, standard vancomycin Day 40

Compound: CCc1c(Cl)c(O)c(Cl)c(O)c1C(=O)O[C@H]1[C@H](O)[C@H](OC)[C@H](OC/C2=C\C=C\C[C@H](O)/C(C)=C/[C@H](CC)[C@@H](O[C@@H]3OC(C)(C)[C@@H](OC(=O)C(C)C)[C@H](O)[C@@H]3O)/C(C)=C/C(C)=C/C[C@@H]([C@@H](C)O)OC2=O)O[C@@H]1C [fidaxomicin, 3-[[[6-deoxy-4-O-(3,5-dichloro-2-ethyl-4,6-dihydroxybenzoyl)-2-O-methyl-β-D-mannopyranosyl]oxy]methyl]-12(R)-[[6-deoxy-5-C-methyl-4-O-(2-methyl-1-oxopropyl)-β-D-lyxo-hexopyranosyl]oxy]-11 (S)-ethyl-8(S)-hydroxy-18(S)-(1(R)-hydroxyethyl)-9,13,15-trimethyloxacyclooctadeca-3,5,9,13,15-pentaene-2-one]
- BCS class [1]: Class IV
- Treatment Difference in sustained clinical cure rate (Extended Fidaxomicin − Standard Vancomycin) ([2]; 30 days after end of treatment): 23.8%
- OR (Odds Ratio) vs. Vancomycin, sustained clinical cure ([2]; 30 days after end of treatment, extended fidaxomicin): 3.36
- % of patients with <3 Unformed bowel movements per day (UBM) ([2]; Day 1): 23%
- % of patients with ≥3 Unformed bowel movements per day (UBM) ([2]; Day 1): 77.0%
- % of patients with <3 Unformed bowel movements per day (UBM) ([2]; Day 2): 33.8%
- % of patients with ≥3 Unformed bowel movements per day (UBM) ([2]; Day 2): 66.2%
- % of patients with <3 Unformed bowel movements per day (UBM) ([2]; Day 3): 59%
- % of patients with ≥3 Unformed bowel movements per day (UBM) ([2]; Day 3): 41%
- % of patients with <3 Unformed bowel movements per day (UBM) ([2]; Day 4): 66.9%
- % of patients with ≥3 Unformed bowel movements per day (UBM) ([2]; Day 4): 33.1%
- % of patients with <3 Unformed bowel movements per day (UBM) ([2]; Day 5): 73.9%
- % of patients with ≥3 Unformed bowel movements per day (UBM) ([2]; Day 5): 26.1%
- % of patients with <3 Unformed bowel movements per day (UBM) ([2]; Day 6): 73.9%
- % of patients with ≥3 Unformed bowel movements per day (UBM) ([2]; Day 6): 26.1%
- % of patients with <3 Unformed bowel movements per day (UBM) ([2]; Day 7): 84.8%
- % of patients with ≥3 Unformed bowel movements per day (UBM) ([2]; Day 7): 15.2%
- % of patients with <3 Unformed bowel movements per day (UBM) ([2]; Day 8): 89.1%
- % of patients with ≥3 Unformed bowel movements per day (UBM) ([2]; Day 8): 10.9%
- % of patients with <3 Unformed bowel movements per day (UBM) ([2]; Day 9): 91.3%
- % of patients with ≥3 Unformed bowel movements per day (UBM) ([2]; Day 9): 8.7%
- % of patients with <3 Unformed bowel movements per day (UBM) ([2]; Day 10): 92.6%
- % of patients with ≥3 Unformed bowel movements per day (UBM) ([2]; Day 10): 7.4%
- % of patients with <3 Unformed bowel movements per day (UBM) ([2]; Day 11): 93.3%
- % of patients with ≥3 Unformed bowel movements per day (UBM) ([2]; Day 11): 6.7%
- % of patients with <3 Unformed bowel movements per day (UBM) ([2]; Day 12): 94.8%
- % of patients with ≥3 Unformed bowel movements per day (UBM) ([2]; Day 12): 5.2%
- % of patients with <3 Unformed bowel movements per day (UBM) ([2]; Day 13): 93.3%
- % of patients with ≥3 Unformed bowel movements per day (UBM) ([2]; Day 13): 6.7%
- % of patients with <3 Unformed bowel movements per day (UBM) ([2]; Day 14): 95.6%
- % of patients with ≥3 Unformed bowel movements per day (UBM) ([2]; Day 14): 4.4%
- % of patients with <3 Unformed bowel movements per day (UBM) ([2]; Day 15): 94.8%
- % of patients with ≥3 Unformed bowel movements per day (UBM) ([2]; Day 15): 5.2%
- % of patients with <3 Unformed bowel movements per day (UBM) ([2]; Day 16): 95.5%
- % of patients with ≥3 Unformed bowel movements per day (UBM) ([2]; Day 16): 4.5%
- % of patients with <3 Unformed bowel movements per day (UBM) ([2]; Day 17): 95.5%
- % of patients with ≥3 Unformed bowel movements per day (UBM) ([2]; Day 17): 4.5%
- % of patients with <3 Unformed bowel movements per day (UBM) ([2]; Day 18): 94.0%
- % of patients with ≥3 Unformed bowel movements per day (UBM) ([2]; Day 18): 6.0%
- % of patients with <3 Unformed bowel movements per day (UBM) ([2]; Day 19): 95.5%
- % of patients with ≥3 Unformed bowel movements per day (UBM) ([2]; Day 19): 4.5%
- % of patients with <3 Unformed bowel movements per day (UBM) ([2]; Day 20): 97.8%
- % of patients with ≥3 Unformed bowel movements per day (UBM) ([2]; Day 20): 2.2%
- % of patients with <3 Unformed bowel movements per day (UBM) ([2]; Day 21): 95.5%
- % of patients with ≥3 Unformed bowel movements per day (UBM) ([2]; Day 21): 4.5%
- % of patients with <3 Unformed bowel movements per day (UBM) ([2]; Day 22): 96.3%
- % of patients with ≥3 Unformed bowel movements per day (UBM) ([2]; Day 22): 3.7%
- % of patients with <3 Unformed bowel movements per day (UBM) ([2]; Day 23): 95.5%
- % of patients with ≥3 Unformed bowel movements per day (UBM) ([2]; Day 23): 4.5%
- % of patients with <3 Unformed bowel movements per day (UBM) ([2]; Day 24): 96.2%
- % of patients with ≥3 Unformed bowel movements per day (UBM) ([2]; Day 24): 3.8%
- % of patients with <3 Unformed bowel movements per day (UBM) ([2]; Day 25): 96.2%
- % of patients with ≥3 Unformed bowel movements per day (UBM) ([2]; Day 25): 3.8%
- % of patients with <3 Unformed bowel movements per day (UBM) ([2]; Day 26): 97.3%
- % of patients with ≥3 Unformed bowel movements per day (UBM) ([2]; Day 26): 2.7%
- % of patients with <3 Unformed bowel movements per day (UBM) ([2]; Day 27): 98.5%
- % of patients with ≥3 Unformed bowel movements per day (UBM) ([2]; Day 27): 1.5%
- Treatment Difference in recurrence rate (Extended fidaxomicin − Standard vancomycin) ([2]; Day 55): −12.6%
- OR (Odds Ratio) vs. Vancomycin, recurrence of CDI ([2]; Day 55, extended fidaxomicin): 0.21
- Recurrence of CDI (%) at visit 5 (Day 55) [2, 4]: (3.5) %
- Recurrence of CDI at visit 5 (Day 55) (patients/N) [2, 4]: 5/142
- Recurrence of CDI (%) at visit 5 (Day 55) ([2]; Day 55, extended fidaxomicin or standard vancomycin, listed as FDX): 3.5%
- Recurrence 30 days after end of treatment (%) [2, 5]: 3.5%
- Recurrence 30 days after end of treatment (patients/N) [2, 5]: 5/142
- Sustained clinical cure (%) at 30 days after end of treatment [2, 6]: (86.7) %
- Sustained clinical cure at 30 days after end of treatment (patients/N) [2, 6]: 124/143
- Sustained clinical cure (%) at 30 days after end of treatment ([2]; extended fidaxomicin Day 55, standard vancomycin Day 40, listed as FDX): 86.7%
- Number of Unformed bowel movements per day ([3]; Patient 1 (ID: 3000510001), Day 1): 4
- Number of Unformed bowel movements per day ([3]; Patient 1 (ID: 3000510001), Day 2): 2
- Number of Unformed bowel movements per day ([3]; Patient 1 (ID: 3000510001), Day 3): 1
- Number of Unformed bowel movements per day ([3]; Patient 1 (ID: 3000510001), Day 4): 0
- Number of Unformed bowel movements per day ([3]; Patient 1 (ID: 3000510001), Day 5): 0
- Number of Unformed bowel movements per day ([3]; Patient 1 (ID: 3000510001), Day 6): 2
- Number of Unformed bowel movements per day ([3]; Patient 1 (ID: 3000510001), Day 7): 0
- Number of Unformed bowel movements per day ([3]; Patient 1 (ID: 3000510001), Day 8): 0
- Number of Unformed bowel movements per day ([3]; Patient 1 (ID: 3000510001), Day 9): 0
- Number of Unformed bowel movements per day ([3]; Patient 1 (ID: 3000510001), Day 10): 0
- Number of Unformed bowel movements per day ([3]; Patient 2 (ID: 3000710001), Day 1): 7
- Number of Unformed bowel movements per day ([3]; Patient 2 (ID: 3000710001), Day 2): 7
- Number of Unformed bowel movements per day ([3]; Patient 2 (ID: 3000710001), Day 3): 2
- Number of Unformed bowel movements per day ([3]; Patient 2 (ID: 3000710001), Day 4): 1
- Number of Unformed bowel movements per day ([3]; Patient 2 (ID: 3000710001), Day 5): 1
- Number of Unformed bowel movements per day ([3]; Patient 2 (ID: 3000710001), Day 6): 2
- Number of Unformed bowel movements per day ([3]; Patient 2 (ID: 3000710001), Day 7): 1
- Number of Unformed bowel movements per day ([3]; Patient 2 (ID: 3000710001), Day 8): 1
- Number of Unformed bowel movements per day ([3]; Patient 2 (ID: 3000710001), Day 9): 1
- Number of Unformed bowel movements per day ([3]; Patient 2 (ID: 3000710001), Day 10): 0
- Number of Unformed bowel movements per day ([3]; Patient 3 (ID: 3400310001), Day 1): 8
- Number of Unformed bowel movements per day ([3]; Patient 3 (ID: 3400310001), Day 2): 0
- Number of Unformed bowel movements per day ([3]; Patient 3 (ID: 3400310001), Day 3): 0
- Number of Unformed bowel movements per day ([3]; Patient 3 (ID: 3400310001), Day 4): 0
- Number of Unformed bowel movements per day ([3]; Patient 3 (ID: 3400310001), Day 5): 0
- Number of Unformed bowel movements per day ([3]; Patient 3 (ID: 3400310001), Day 6): 0
- Number of Unformed bowel movements per day ([3]; Patient 3 (ID: 3400310001), Day 7): 0
- Number of Unformed bowel movements per day ([3]; Patient 3 (ID: 3400310001), Day 8): 0
- Number of Unformed bowel movements per day ([3]; Patient 3 (ID: 3400310001), Day 9): 0
- Number of Unformed bowel movements per day ([3]; Patient 3 (ID: 3400310001), Day 10): 0
- Number of Unformed bowel movements per day ([3]; Patient 4 (ID: 3580210001), Day 1): 9
- Number of Unformed bowel movements per day ([3]; Patient 4 (ID: 3580210001), Day 2): 9
- Number of Unformed bowel movements per day ([3]; Patient 4 (ID: 3580210001), Day 3): 5
- Number of Unformed bowel movements per day ([3]; Patient 4 (ID: 3580210001), Day 4): 3
- Number of Unformed bowel movements per day ([3]; Patient 4 (ID: 3580210001), Day 5): 2
- Number of Unformed bowel movements per day ([3]; Patient 4 (ID: 3580210001), Day 6): 3
- Number of Unformed bowel movements per day ([3]; Patient 4 (ID: 3580210001), Day 7): 3
- Number of Unformed bowel movements per day ([3]; Patient 4 (ID: 3580210001), Day 8): 1
- Number of Unformed bowel movements per day ([3]; Patient 4 (ID: 3580210001), Day 9): 1
- Number of Unformed bowel movements per day ([3]; Patient 4 (ID: 3580210001), Day 10): 2
